These results are taken from patent publication US20220280584A1, “CROTON LECHLERI COMPOSITIONS FOR USE IN TREATING BLEEDING, WOUNDS AND INFECTIONS” (priority 2019, published 2022).

The subject of one experiment is the cells. The note with it: Chen, Planta Med. 60 (1994), cited from earlier work; for Effect on cell proliferation: compounds obtained through extraction; for Wound healing properties / healing effects: Ecuadorian sap.
The subject of experiment [1] is MSSA and MRSA (Staphylococcus aureus). Briefly: MBC, in vitro assay of MSSA and MRSA. In kind it is cell-based.
Experiment [2] has the same test system. As to the kind of experiment: MIC, in vitro assay of MSSA and MRSA (2-fold microdilution). The note with it: for MIC: Staphylococcus aureus. In kind it is cell-based. (In general: Dilution methods test growth across graded concentrations, often in twofold steps.)
For a further experiment, the system named is S. pyogenes. Briefly: MIC against S. pyogenes (Erythromycin and Tetracycline resistant strains). The class given is cell-based. The note with it: Streptococcus pyogenes, antibiotic screening. The protocol: Tables 14 and 15 show an assay whose setup is same as what was used for screening S. aureus and P. aeruginosa (i.e. 2-fold microdilution). The 20 strains of S. pyogenes assayed were selected from the two rounds of antibiotic screening to identify Erythromycin and Tetracycline resistant strains. […] For this feasibility study, AB-101 Lot 1 and Lot 2 was used. P. aeruginosa ATCC 27853 was tested as a positive control for AB-101 activity.

Converted amounts (≈) assume the structure as drawn.

Take `Oc1cc(O)c2c(c1)O[C@H](c1cc(O)c(O)c(O)c1)[C@@H](O)C2` [Gallocatechin]: the “Effect on cell proliferation” value with the cells is given as “slightly stimulating”.

Consider `COc1ccc2c(=O)oc3c(OC)cc(CCN(C)C)c4c(=O)oc1c2c34` [Taspine], for which the “Activity against MSSA and MRSA (MBC)” value in experiment [1] (purified extract of taspine) is listed as “does not have activity”. The “MBC (% relative to amount in AB-101)” value in experiment [1] (strain ATCC 29213, QC control) was >50 % relative to amount in AB-101. The “Activity against MSSA and MRSA (MIC)” value in experiment [2] (purified extract of taspine, highest concentration tested 50% relative to AB-101 = 10 μg/mL) was “does not have activity”. In addition, the “MIC (% relative to amount in AB-101)” value in experiment [2] (strain ATCC 29213, QC control, 50% = 10 μg/mL taspine) is >50 % relative to amount in AB-101. Besides, the “Wound healing properties / healing effects” value in the experiment on the cells was “little healing effects”.

Turning to `CN[C@H](CC(C)C)C(=O)N[C@H]1C(=O)N[C@@H](CC(N)=O)C(=O)N[C@H]2C(=O)N[C@H]3C(=O)N[C@H](C(=O)N[C@H](C(=O)O)c4cc(O)cc(O)c4-c4cc3ccc4O)[C@H](O)c3ccc(c(Cl)c3)Oc3cc2cc(c3O[C@@H]2O[C@H](CO)[C@@H](O)[C@H](O)[C@H]2O[C@H]2C[C@](C)(N)[C@H](O)[C@H](C)O2)Oc2ccc(cc2Cl)[C@H]1O` [Vancomycin], the MIC (as a rule, the least concentration at which growth counts as inhibited) is 0.5 µg/mL (≈ 0.345 µM) in the experiment with S. pyogenes (S. pyogenes strain 1744264); 8 µg/mL (≈ 5.52 µM) with S. pyogenes (S. pyogenes strain 1744265); 0.5 µg/mL (≈ 0.345 µM) against S. pyogenes (S. pyogenes strain 1744271); 1 µg/mL (≈ 0.69 µM) against S. pyogenes (S. pyogenes strain 1744272); 0.25 to 0.5 µg/mL (≈ 0.173 to 0.345 µM) in the experiment on S. pyogenes (S. pyogenes strain 1744275); 4 µg/mL (≈ 2.76 µM) in the experiment with S. pyogenes (S. pyogenes strain 1744277). Further, the minimal inhibitory concentration (MIC) in the experiment with S. pyogenes (S. pyogenes strain 1744285), in the experiment on S. pyogenes (S. pyogenes strain 2065754), against S. pyogenes (S. pyogenes strain 2065755), against S. pyogenes (S. pyogenes strain 2065756), in the experiment on S. pyogenes (S. pyogenes strain 2065757) and in the experiment with S. pyogenes (S. pyogenes strain 2065759) was 0.5 µg/mL (≈ 0.345 µM) in each case. In addition, the MIC was 0.5 µg/mL (≈ 0.345 µM) in the experiment with S. pyogenes (S. pyogenes strain 2065760); 0.5 µg/mL (≈ 0.345 µM) against S. pyogenes (S. pyogenes strain 2065761); 0.5 µg/mL (≈ 0.345 µM) against S. pyogenes (S. pyogenes strain 2065762); 0.5 µg/mL (≈ 0.345 µM) in the experiment on S. pyogenes (S. pyogenes strain 2065763); 2 to 4 µg/mL (≈ 1.38 to 2.76 µM) in the experiment with S. pyogenes (S. pyogenes strain 2065765); 0.25 to 0.5 µg/mL (≈ 0.173 to 0.345 µM) against S. pyogenes (S. pyogenes strain 20658748). Also, the MIC against S. pyogenes (S. pyogenes strain 20658749) and in the experiment on S. pyogenes (S. pyogenes strain 20658750) was 0.5 µg/mL (≈ 0.345 µM) throughout.

Regarding `C/C(=C\C(=O)OCCCCCCCCC(=O)O)C[C@@H]1OC[C@H](C[C@@H]2O[C@H]2[C@@H](C)[C@H](C)O)[C@@H](O)[C@H]1O` [Mupirocin], the minimum inhibitory concentration (MIC) in experiment [2] (strain 1674606, MupirocinR, MSSA) was more than 256 µg/mL; in experiment [2] (strain 1674607, MupirocinR, MRSA), more than 256 µg/mL; in experiment [2] (strain CDC 227, MupirocinS, MRSA) it was 0.25 to 0.5 µg/mL (≈ 0.499 to 0.999 µM); in experiment [2] (strain CDC 462, MupirocinS, MSSA), not above 0.25 µg/mL; in experiment [2] (strain CDC 464, MupirocinS, MSSA), not above 0.25 µg/mL; in experiment [2] (strain CDC 484, MupirocinS, MSSA), not above 0.25 µg/mL. The MIC in experiment [2] (strain CDC 485, MupirocinS, MSSA) was not above 0.25 µg/mL.

`COc1ccc([C@H]2Oc3c(OC)cc(CCCO)cc3[C@@H]2CO)cc1OC` [dimethylcedrusin]: the “Wound healing properties / healing effects” value with the cells is “little healing effects”.

On to Catechin, for which the “Effect on cell proliferation” value in the experiment on the cells is on record as “little effect”.

For `Oc1cc(O)c2c(c1)O[C@H](c1cc(O)c(O)c(O)c1)[C@H](O)C2` [Epigallocatechin], the “Effect on cell proliferation” value in the experiment with the cells was “slightly stimulating”.
